From patent publication US20230150953A1, “SUBSTITUTED ISOPHTHALIC ACID DIAMIDES” (Bayer Aktiengesellschaft, priority 2020, published 2023)

How the values were obtained:
Assay type in all cases: in vivo
[1] = test system: MATIN Matricaria inodora; assay: Post-emergence herbicidal action against harmful plants; details: one-leaf stage, assessed visually after about 3 weeks vs untreated controls
Description: (§1) The abbreviations used for the harmful plants mean: • ABUTH Abutilon theophrasti ALOMY Alopecurus myosuroides • AVEFA Avena fatua AMARE Amaranthus retroflexus • CYPES Cyperus esculentus DIGSA Digitaria sanguinalis • ECHCG Echinochloa crus-galli HORMU Hordeum murinum • LOLMU Lolium multiflorum LOLRI Lolium rigidum • MATIN Matricaria inodora PHBPU Pharbitis purpurea • POLCO Polygonum convolvulus SETVI Setaria viridis • STEME Stellaria media VERPE Veronica persica • VIOTR Viola tricolor 2. Post-Emergence Herbicidal Action Against Harmful Plants Seeds of monocotyledonous and dicotyledonous weed and crop plants are laid out in sandy loam soil in wood-fiber pots, covered with soil and cultivated in a greenhouse under good growth conditions. 2 to 3 weeks after sowing, the test plants are treated at the one-leaf stage. The compounds of the invention, formulated in the form of wettable powders (WP) or as emulsion concentrates (EC), are then sprayed onto the green parts of the plants in the form of an aqueous suspension or emulsion at a water application rate equivalent to 600 to 800 l/ha, with addition of 0.2% wetting agent. After the test plants have been left to stand in the greenhouse under optimal growth conditions for about 3 weeks, the action of the preparations is assessed visually in comparison to untreated controls (herbicidal action in percent (%): 100% activity=the plants have died, 0% activity=like control plants). […] The tables below illustrate, in an illustrative manner, the post-emergence herbicidal action of the compounds of the invention, the herbicidal activity being stated in percent.

[2] = test system: ECHCG Echinochloa crus-galli; assay: Pre-emergence herbicidal action against harmful plants; details: scored visually after 3 weeks vs untreated controls
Description: (§2) The abbreviations used for the harmful plants mean: • ABUTH Abutilon theophrasti ALOMY Alopecurus myosuroides • AVEFA Avena fatua AMARE Amaranthus retroflexus • CYPES Cyperus esculentus DIGSA Digitaria sanguinalis • ECHCG Echinochloa crus-galli HORMU Hordeum murinum • LOLMU Lolium multiflorum LOLRI Lolium rigidum • MATIN Matricaria inodora PHBPU Pharbitis purpurea • POLCO Polygonum convolvulus SETVI Setaria viridis • STEME Stellaria media VERPE Veronica persica • VIOTR Viola tricolor 1. Pre-Emergence Herbicidal Action Against Harmful Plants Seeds of monocotyledonous and dicotyledonous weed plants and crop plants are laid out in sandy loam soil in wood-fiber pots and covered with soil. The compounds of the invention, formulated in the form of wettable powders (WP) or as emulsion concentrates (EC), are then applied to the surface of the covering soil in the form of an aqueous suspension or emulsion at a water application rate equivalent to 600 to 800 l/ha, with addition of 0.2% wetting agent. After the treatment, the pots are placed in a greenhouse and kept under good growth conditions for the trial plants. The damage to the test plants is scored visually after a test period of 3 weeks by comparison with untreated controls (herbicidal activity in percent (%): 100% activity=the plants have died, 0% activity=like control plants). […] The tables below illustrate, in an illustrative manner, the post-emergence herbicidal action of the compounds of the invention, the herbicidal activity being stated in percent.

[3] = test system: AMARE Amaranthus retroflexus; assay: as above; details: scored visually after 3 weeks vs untreated controls
Description: as §2

[4] = test system: MATIN Matricaria inodora; assay: as above; details: scored visually after 3 weeks vs untreated controls
Description: as §2

[5] = test system: VERPE Veronica persica; assay: as above; details: scored visually after 3 weeks vs untreated controls
Description: as §2

[6] = test system: ABUTH Abutilon theophrasti; assay: as above; details: scored visually after 3 weeks vs untreated controls
Description: as §2

[7] = test system: DIGSA Digitaria sanguinalis; assay: as above; details: scored visually after 3 weeks vs untreated controls
Description: as §2

[8] = test system: AMARE Amaranthus retroflexus; assay: Post-emergence herbicidal action against harmful plants; details: one-leaf stage, assessed visually after about 3 weeks vs untreated controls
Description: as §1

[9] = test system: ABUTH Abutilon theophrasti; assay: as above; details: one-leaf stage, assessed visually after about 3 weeks vs untreated controls
Description: as §1

[10] = test system: ECHCG Echinochloa crus-galli; assay: as above; details: 20 g/ha, one-leaf stage, assessed visually after about 3 weeks vs untreated controls
Description: as §1

[11] = test system: ALOMY Alopecurus myosuroides; assay: as above; details: one-leaf stage, assessed visually after about 3 weeks vs untreated controls
Description: as §1

[12] = test system: POLCO Polygonum convolvulus; assay: Pre-emergence herbicidal action against harmful plants; details: 80 g/ha, scored visually after 3 weeks vs untreated controls
Description: as §2

[13] = test system: ALOMY Alopecurus myosuroides; assay: as above; details: 80 g/ha, scored visually after 3 weeks vs untreated controls
Description: as §2

[14] = test system: SETVI Setaria viridis; assay: Post-emergence herbicidal action against harmful plants; details: one-leaf stage, assessed visually after about 3 weeks vs untreated controls
Description: as §1

| Compound | Post-emergence action at 20 g/ha against MATIN in % [1] [%] | Pre-emergence action at 80 g/ha against ECHCG in % [2] [%] | Pre-emergence action at 20 g/ha against AMARE in % [3] [%] | Pre-emergence action at 80 g/ha against AMARE in % [3] [%] | Pre-emergence action at 20 g/ha against MATIN in % [4] [%] | Pre-emergence action at 80 g/ha against MATIN in % [4] [%] | Pre-emergence action at 20 g/ha against VERPE in % ([5]; 20 g/ha) [%] | Pre-emergence action at 80 g/ha against VERPE in % [5] [%] | Pre-emergence action at 20 g/ha against ABUTH in % ([6]; 20 g/ha) [%] | Pre-emergence action at 80 g/ha against ABUTH in % [6] [%] | Pre-emergence action at 20 g/ha against DIGSA in % [7] [%] | Pre-emergence action at 80 g/ha against DIGSA in % [7] [%] | Post-emergence action at 5 g/ha against AMARE in % [8] [%] | Post-emergence action at 20 g/ha against AMARE in % [8] [%] | Post-emergence action at 20 g/ha against ABUTH in % [9] [%] | Post-emergence action at 20 g/ha against ECHCG in % [10] [%] | Post-emergence action at 20 g/ha against ALOMY in % [11] [%] | Pre-emergence action at 80 g/ha against POLCO in % [12] [%] | Pre-emergence action at 80 g/ha against ALOMY in % [13] [%] | Post-emergence action at 20 g/ha against SETVI in % [14] [%] |
| --- | --- | --- | --- | --- | --- | --- | --- | --- | --- | --- | --- | --- | --- | --- | --- | --- | --- | --- | --- | --- |
| CCn1nnnc1NC(=O)c1c(F)cc(C(F)(F)F)c(C(=O)N(C)C2CC2)c1C [Example 2-97] | 80 | 80 | 100 | 100 | 90 | 100 | 80 | 80 | 100 | 100 | 90 | 100 |  |  |  |  |  |  |  |  |
| CNC(=O)c1c(C(F)(F)F)cc(F)c(C(=O)Nc2nnnn2C)c1Cl [Example 1-180] |  |  | 100 | 100 |  | 100 |  |  |  | 100 | 80 | 80 | 80 | 90 | 90 |  |  |  |  |  |
| Cn1nnnc1NC(=O)c1c(F)cc(C(F)(F)F)c(C(=O)NC2CC2)c1Cl [Example 1-182] |  |  | 100 | 100 |  | 100 |  | 100 |  | 100 | 90 | 100 | 80 | 100 |  | 80 | 80 | 90 | 80 |  |
| CCNC(=O)c1c(C(F)(F)F)cc(F)c(C(=O)Nc2nnnn2C)c1Cl [Example 1-181] |  |  | 100 | 100 |  | 100 |  |  |  | 100 |  | 80 | 90 | 90 | 90 |  |  |  |  |  |
| CCn1nnnc1NC(=O)c1c(F)cc(C(F)(F)F)c(C(=O)NCC(F)F)c1C [Example 2-385] |  | 80 |  | 100 | 80 | 90 |  |  |  | 100 | 90 | 100 | 80 | 90 |  |  |  | 90 |  | 80 |
